Data set [1] has as its target Cytochrome P450 2C19 (Homo sapiens, UniProt P33261). The experiment in a line: Inhibition of CYP2C19. It counts as ADME.
For data set [2], the target named is T1, Peroxisome proliferator-activated receptor alpha (Homo sapiens, UniProt Q07869).
T1 sequence (Q07869 whole entry): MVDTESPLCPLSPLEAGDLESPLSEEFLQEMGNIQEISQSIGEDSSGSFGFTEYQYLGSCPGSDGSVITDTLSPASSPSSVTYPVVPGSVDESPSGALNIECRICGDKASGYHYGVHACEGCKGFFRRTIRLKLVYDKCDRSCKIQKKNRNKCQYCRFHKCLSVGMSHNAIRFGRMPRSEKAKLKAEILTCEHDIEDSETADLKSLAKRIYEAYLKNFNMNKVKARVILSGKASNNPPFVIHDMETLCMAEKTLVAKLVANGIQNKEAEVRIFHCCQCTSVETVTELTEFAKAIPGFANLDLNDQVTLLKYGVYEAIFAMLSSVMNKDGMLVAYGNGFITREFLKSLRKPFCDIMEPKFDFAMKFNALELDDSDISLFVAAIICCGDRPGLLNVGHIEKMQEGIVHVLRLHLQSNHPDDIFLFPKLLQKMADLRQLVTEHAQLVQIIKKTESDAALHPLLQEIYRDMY

In data set [3] the target is T2, Peroxisome proliferator-activated receptor gamma (Homo sapiens, UniProt P37231).
T2 sequence (P37231 whole entry): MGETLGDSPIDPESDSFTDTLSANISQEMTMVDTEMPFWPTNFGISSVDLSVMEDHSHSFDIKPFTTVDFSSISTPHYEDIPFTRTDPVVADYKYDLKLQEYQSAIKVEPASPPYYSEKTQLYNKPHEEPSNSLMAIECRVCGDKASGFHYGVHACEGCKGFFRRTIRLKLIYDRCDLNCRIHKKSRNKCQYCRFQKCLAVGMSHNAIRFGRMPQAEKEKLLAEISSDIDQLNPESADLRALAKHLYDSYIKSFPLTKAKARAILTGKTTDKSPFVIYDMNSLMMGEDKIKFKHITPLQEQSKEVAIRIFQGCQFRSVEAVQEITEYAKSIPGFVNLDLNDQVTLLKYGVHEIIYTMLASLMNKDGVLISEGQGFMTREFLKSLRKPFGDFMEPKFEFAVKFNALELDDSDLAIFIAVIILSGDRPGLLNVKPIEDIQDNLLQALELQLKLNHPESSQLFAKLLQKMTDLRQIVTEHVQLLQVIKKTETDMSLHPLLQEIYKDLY
The experiment in a line: Inhibition of PPARgamma.

In data set [4] the target is T2, Peroxisome proliferator-activated receptor gamma.
Description: Agonist activity at PPARgamma in HEK293 cells by GAL4 transactivation assay
Data set [5] has as its target T1, Peroxisome proliferator-activated receptor alpha. Put plainly: Agonist activity at PPARalpha in HEK293 cells by GAL4 transactivation assay. It counts as functional, cell-based.
Data set [6] addresses T3, Peroxisome proliferator-activated receptor alpha (Homo sapiens) (UniProt Q07869).
T3 sequence (whole entry): T1 sequence (Q07869 whole entry)
Put plainly: Agonist activity at PPARalpha in HEK293 cells at 1 uM by GAL4 transactivation assay relative to GW-2331. It counts as functional, cell-based.

In data set [7] the target is T4, Cytochrome P450 3A4 (Homo sapiens, UniProt P08684). The experiment in a line: Inhibition of CYP3A4 in presence of 7-benzyloxyresorufin substrate. The data set is classed as ADME.
In data set [8] the target is Cytochrome P450 2C9 (Homo sapiens, UniProt P11712). Put plainly: Inhibition of CYP2C9. It counts as ADME.
Data set [9] deals with Voltage-gated inwardly rectifying potassium channel KCNH2 (Homo sapiens, UniProt Q12809). The experiment in a line: Inhibition of human ERG by FLIPR assay.
Data set [10] has as its target T4, Cytochrome P450 3A4. Put plainly: Inhibition of CYP3A4 in presence of 7-benzyloxy-4-trifluoromethyl coumarin substrate. It counts as ADME.
Data set [11] concerns Mus musculus. The experiment in a line: Decrease in plasma glucose level in db/db mouse at 10 mg/kg/day, po qd after 14 days. The data set is classed as functional. Further details: scale not given: the % may be the effect or the level left.
Data set [12] concerns Liver. Put plainly: Drug concentration in db/db mouse liver at 10 mg/kg/day, po qd after 14 days. The data set is classed as ADME, organism-based. Further details: route oral. The settings on record: in vivo, 336 h.
Data set [13] concerns Mus musculus. Put plainly: Decrease in plasma triglyceride level in db/db mouse at 10 mg/kg/day, po qd after 14 days. It counts as functional. Further details: scale not given: the % may be the effect or the level left.
For data set [14], the system named is Adipose tissue. Put plainly: Drug concentration in db/db mouse adipose at 10 mg/kg/day, po qd after 14 days. The settings on record: in vivo, 336 h. The data set is classed as ADME, organism-based. Further details: route oral.
A short description of data set [15]: Drug concentration in db/db mouse plasma at 10 mg/kg/day, po qd after 14 days. Further details: route oral. The data set is classed as ADME, organism-based.
The subject of data set [16] is Mus musculus. Put plainly: Decrease in plasma triglyceride level in db/db mouse at 10 mg/kg/day, po qd after 3 weeks. The data set is classed as functional. Details: scale not given: the % may be the effect or the level left.

T4 sequence (P08684 whole entry): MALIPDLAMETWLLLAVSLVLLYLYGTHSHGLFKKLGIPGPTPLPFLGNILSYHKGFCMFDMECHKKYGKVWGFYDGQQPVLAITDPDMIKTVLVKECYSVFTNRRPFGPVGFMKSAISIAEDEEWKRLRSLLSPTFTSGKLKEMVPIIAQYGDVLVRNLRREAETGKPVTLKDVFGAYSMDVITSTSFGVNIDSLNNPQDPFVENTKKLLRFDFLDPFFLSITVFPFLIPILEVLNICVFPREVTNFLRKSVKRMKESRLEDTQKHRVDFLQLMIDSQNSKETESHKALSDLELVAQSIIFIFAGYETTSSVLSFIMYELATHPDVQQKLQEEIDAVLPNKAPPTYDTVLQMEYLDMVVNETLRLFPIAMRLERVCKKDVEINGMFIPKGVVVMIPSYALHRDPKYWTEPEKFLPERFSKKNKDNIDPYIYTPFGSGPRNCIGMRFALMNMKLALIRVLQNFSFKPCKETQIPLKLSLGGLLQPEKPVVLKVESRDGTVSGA
Sequence of Cytochrome P450 2C9 (P11712 whole entry): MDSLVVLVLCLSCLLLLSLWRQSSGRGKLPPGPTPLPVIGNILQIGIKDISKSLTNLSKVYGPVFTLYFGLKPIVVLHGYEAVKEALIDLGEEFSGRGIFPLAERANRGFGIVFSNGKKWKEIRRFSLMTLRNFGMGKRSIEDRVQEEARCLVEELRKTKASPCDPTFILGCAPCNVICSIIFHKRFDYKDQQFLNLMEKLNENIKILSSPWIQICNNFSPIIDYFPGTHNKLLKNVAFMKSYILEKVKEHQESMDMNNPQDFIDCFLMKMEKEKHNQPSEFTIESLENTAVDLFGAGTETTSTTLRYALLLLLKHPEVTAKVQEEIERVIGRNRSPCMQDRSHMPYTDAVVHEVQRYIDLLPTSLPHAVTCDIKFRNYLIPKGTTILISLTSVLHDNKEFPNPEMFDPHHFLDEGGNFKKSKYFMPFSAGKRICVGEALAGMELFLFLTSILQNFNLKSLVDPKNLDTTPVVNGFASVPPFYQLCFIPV
Sequence of Cytochrome P450 2C19 (P33261 whole entry): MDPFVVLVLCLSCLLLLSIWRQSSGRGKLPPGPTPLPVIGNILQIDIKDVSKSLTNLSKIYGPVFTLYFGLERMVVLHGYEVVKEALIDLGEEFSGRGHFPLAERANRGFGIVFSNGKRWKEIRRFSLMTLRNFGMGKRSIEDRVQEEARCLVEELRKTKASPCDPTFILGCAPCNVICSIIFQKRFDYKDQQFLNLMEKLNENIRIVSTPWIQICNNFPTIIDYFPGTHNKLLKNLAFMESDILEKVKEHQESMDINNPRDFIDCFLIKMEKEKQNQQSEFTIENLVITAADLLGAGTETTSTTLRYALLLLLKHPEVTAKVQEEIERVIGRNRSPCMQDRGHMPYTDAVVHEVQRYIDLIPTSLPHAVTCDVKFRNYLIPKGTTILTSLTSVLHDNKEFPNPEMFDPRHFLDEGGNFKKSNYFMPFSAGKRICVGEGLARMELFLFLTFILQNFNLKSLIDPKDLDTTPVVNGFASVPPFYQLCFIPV
Sequence of Voltage-gated inwardly rectifying potassium channel KCNH2 (Q12809 whole entry): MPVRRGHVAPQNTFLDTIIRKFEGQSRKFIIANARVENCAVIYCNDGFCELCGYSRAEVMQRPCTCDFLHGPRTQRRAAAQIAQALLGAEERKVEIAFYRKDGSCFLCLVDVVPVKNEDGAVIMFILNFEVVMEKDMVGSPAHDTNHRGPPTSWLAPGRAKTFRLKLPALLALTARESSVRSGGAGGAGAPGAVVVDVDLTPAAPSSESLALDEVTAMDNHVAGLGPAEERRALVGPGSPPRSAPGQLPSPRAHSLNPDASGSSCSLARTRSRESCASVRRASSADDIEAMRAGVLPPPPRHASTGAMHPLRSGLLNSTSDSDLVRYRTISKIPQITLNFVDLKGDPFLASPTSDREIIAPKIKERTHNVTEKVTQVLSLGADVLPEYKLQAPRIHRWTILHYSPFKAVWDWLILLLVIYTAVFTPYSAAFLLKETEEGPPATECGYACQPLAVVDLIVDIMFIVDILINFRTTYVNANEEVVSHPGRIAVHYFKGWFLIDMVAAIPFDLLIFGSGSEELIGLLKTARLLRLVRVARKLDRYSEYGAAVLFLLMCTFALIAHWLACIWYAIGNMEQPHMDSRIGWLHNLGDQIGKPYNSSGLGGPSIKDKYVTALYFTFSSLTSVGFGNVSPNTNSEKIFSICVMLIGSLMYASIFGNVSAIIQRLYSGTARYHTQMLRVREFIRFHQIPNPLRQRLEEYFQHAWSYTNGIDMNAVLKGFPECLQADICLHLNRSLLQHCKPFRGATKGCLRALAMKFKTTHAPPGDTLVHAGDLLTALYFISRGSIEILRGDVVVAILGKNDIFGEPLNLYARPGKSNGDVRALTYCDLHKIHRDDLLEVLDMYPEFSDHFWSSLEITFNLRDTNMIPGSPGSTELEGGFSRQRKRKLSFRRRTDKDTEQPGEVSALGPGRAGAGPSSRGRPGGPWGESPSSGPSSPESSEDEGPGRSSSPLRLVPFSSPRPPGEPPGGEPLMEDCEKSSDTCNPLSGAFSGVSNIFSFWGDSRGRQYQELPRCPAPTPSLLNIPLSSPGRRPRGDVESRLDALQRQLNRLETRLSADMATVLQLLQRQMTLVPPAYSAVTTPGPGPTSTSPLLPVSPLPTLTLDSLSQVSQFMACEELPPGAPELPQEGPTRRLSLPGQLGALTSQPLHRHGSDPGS

Turning to `Cc1oc(-c2cccc(Cl)c2)nc1CCOc1cccc(C[C@@H]2C(=O)N(c3ccc(C(C)(C)C)cc3)[C@@H]2C(=O)O)c1`, the IC50 (in general, the concentration that gives 50% inhibition) stood at 5.3 µM in [1]; 0.86 µM in data set [2]; 0.25 µM in data set [3]; 20 µM in data set [7]; 0.67 µM in [8]. For the same molecule, the figures for the EC50 in data set [4] and in [5] were 0.1 µM and 0.06 µM, respectively. The Intrinsic activity in data set [6] is greater than 90%.

With `CCCCCCCN(CCc1ccc(O[C@@](C)(CC)C(=O)O)cc1)C(=O)Nc1ccc(F)cc1F`, the IC50 in [2] came out at 0.74 µM; in data set [3], 0.6 µM. Besides, the EC50 – broadly, the concentration giving half of the maximal effect – was found to be 0.243 µM in [4] and 0.045 µM in data set [5]. The same molecule yielded an Intrinsic activity in [6] greater than 90%.

As for `COc1ccc(N2C(=O)[C@@H](Cc3ccc(OCCc4nc(-c5ccccc5)oc4C)cc3)[C@H]2C(=O)O)cc1`, the IC50 was 0.73 µM in data set [2]; 0.04 µM in data set [3]; 54 µM in [9]; 33 µM in data set [10]; 26 µM in data set [7]; 14 µM in [8]. In addition, the figures for the EC50 in [4] and in [5] were 0.02 µM and 0.15 µM, respectively. In [6], this molecule gave an Intrinsic activity greater than 90%.

For `Cc1oc(-c2ccccc2)nc1CCOc1cccc(C[C@H]2C(=O)N(c3ccc(C(C)(C)C)cc3)[C@H]2C(=O)O)c1`, the IC50 in [2] is greater than 15 µM; in [3] it was 0.8 µM; in [10] it was 20 µM; in data set [8] it was 0.67 µM. The EC50 in [4] turned out to be 0.41 µM; in data set [5], 5.4 µM.

As for `COc1ccc(N2C(=O)C(Cc3cccc(OCCc4nc(-c5ccccc5)oc4C)c3)C2C(=O)O)cn1` (racemic), the values for the IC50 in data set [2] and in [3] were 1.3 µM and 0.23 µM, respectively. The figures for the EC50 in [4] and in data set [5] were 0.07 µM and 0.09 µM, respectively. Moreover, the Intrinsic activity in data set [6] is greater than 90%.

Consider `Cc1oc(-c2ccccc2)nc1CCOc1cccc(CC2C(=O)N(c3ccc(F)cc3)C2C(=O)O)c1` (racemic), for which the IC50 in [2] is 2.4 µM; in data set [3], 0.18 µM. The EC50 in [4] was 0.03 µM; in data set [5], 0.11 µM. The Intrinsic activity in [6] is greater than 90%.

Consider `COc1ccc(N2C(=O)[C@@H](Cc3cccc(OCCc4nc(-c5ccccc5)oc4C)c3)[C@H]2C(=O)O)cc1`, for which the 50% inhibitory concentration (IC50) in [2] came to 0.36 µM; in data set [3], 0.1 µM; in [10], 50 µM; in data set [7] it was 0.83 µM; in data set [8] it was 2.2 µM. The EC50 in [4] amounted to 0.09 µM; in [5], 0.07 µM. The Activity in data set [11] was -43%; in data set [13], 0%. Further, the Drug uptake in data set [12] is 10.4 nmol/g; in data set [14] it was 0.29 nmol/g. Besides, the Intrinsic activity in data set [6] was greater than 90%. For the same molecule, the concentration at 336 h in data set [15] amounted to 2.8 µM.

Consider `COc1ccc(N2C(=O)C(Cc3cccc(OCCc4nc(-c5ccccc5)oc4C)c3)C2C(=O)O)cc1` (racemic), for which the figures for the IC50 in [2] and in data set [3] were 0.69 µM and 0.16 µM, respectively. Further, the EC50 was determined as 0.18 µM in [4] and 0.14 µM in data set [5]. For the same molecule, the Intrinsic activity in data set [6] was greater than 90%.

Regarding `COc1ccc(-c2nc(CCOc3cccc(C[C@@H]4C(=O)N(c5ccc(C(C)(C)C)cc5)[C@@H]4C(=O)O)c3)c(C)o2)cc1`, the concentration for half-maximal inhibition (IC50) in [2] turned out to be 0.46 µM; in [3], 0.22 µM; in data set [7], 12 µM. Further, the EC50 in data set [4] came out at 0.04 µM; in data set [5] it was 0.008 µM. In data set [6], this molecule returned an Intrinsic activity greater than 90%.

Take `COc1ccc(N2C(=O)[C@H](Cc3cccc(OCCc4nc(-c5ccccc5)oc4C)c3)[C@@H]2C(=O)O)cc1`: the half-inhibitory concentration (IC50) in data set [2] was greater than 15 µM; in [3], 1.1 µM. Moreover, the EC50 was 0.84 µM in data set [4] and greater than 7.5 µM in data set [5].

As to `Cc1oc(-c2ccccc2)nc1CCOc1ccc(C[C@@H]2C(=O)N(c3ccc(C(C)(C)C)cc3)[C@@H]2C(=O)O)cc1`, the IC50 in data set [2] was 0.79 µM; in data set [3] it was 0.11 µM; in data set [10], greater than 40 µM; in [7], 28 µM; in [8], 2.3 µM. Besides, the EC50 in data set [4] turned out to be 0.004 µM; in data set [5], 0.01 µM. Also, the Intrinsic activity in data set [6] is greater than 90%.

Consider `COc1ccc(OC(=O)N(CC(=O)O)Cc2ccc(OCCc3nc(-c4ccccc4)oc3C)cc2)cc1` [MURAGLITAZAR], for which the Activity in data set [11] is -54%; in data set [13], -33%. The values for the Drug uptake in data set [12] and in data set [14] were 25 nmol/g and 3 nmol/g, respectively. The concentration at 336 h in data set [15] stood at 103 µM.

Consider `Cc1oc(-c2ccccc2)nc1CCOc1cccc(C[C@@H]2C(=O)N(c3ccc(C(C)(C)C)cc3)[C@@H]2C(=O)O)c1`, for which the IC50 in data set [2] came to 0.08 µM; in [3], 0.04 µM; in data set [10] it was 17 µM; in data set [7], 19 µM; in data set [8], 0.23 µM. In addition, the EC50 stood at 0.12 µM in [4] and 0.04 µM in [5]. In addition, the Activity in data set [11] was -17%; in [13] it was -52%; in data set [16], 61%. Also, in data set [12], the Drug uptake is recorded as 7.4 nmol/g. Moreover, in [15], the concentration at 336 h was 0.87 µM.

As for `Cc1oc(-c2ccccc2)nc1CCOc1cccc(CC2C(=O)N(c3ccc(Cl)cc3)C2C(=O)O)c1` (racemic), the IC50 in [2] was 1.4 µM; in data set [3], 0.36 µM. In addition, the EC50 was determined as 0.13 µM in data set [4] and 0.23 µM in data set [5]. The Intrinsic activity in data set [6] was greater than 90%.

Regarding `COc1ccc(N2C(=O)[C@H](Cc3ccc(OCCc4nc(-c5ccccc5)oc4C)cc3)[C@@H]2C(=O)O)cc1`, the IC50 in data set [2] was greater than 15 µM; in data set [3] it was 3.4 µM. Further, the EC50 in data set [5] is greater than 7.5 µM.

As to `COc1cccc(-c2nc(CCOc3cccc(C[C@@H]4C(=O)N(c5ccc(C(C)(C)C)cc5)[C@@H]4C(=O)O)c3)c(C)o2)c1`, the 50% inhibitory concentration (IC50) in [1] was 8.3 µM; in data set [2], 0.52 µM; in data set [3] it was 0.11 µM; in data set [7], 19 µM; in [8], 0.65 µM. For the same molecule, the EC50 in data set [4] and in data set [5] was 0.04 µM each time. Besides, the Intrinsic activity in data set [6] is greater than 90%.

`Cc1oc(-c2ccccc2)nc1CCOc1ccc(C[C@H]2C(=O)N(c3ccc(C(C)(C)C)cc3)[C@H]2C(=O)O)cc1`: the IC50 in data set [2] was greater than 15 µM; in [3], 4.24 µM; in data set [10] it was greater than 40 µM; in data set [7] it was greater than 40 µM; in [8], 3 µM. The EC50 came out at 0.5 µM in data set [4] and 0.97 µM in data set [5].

For `Cc1oc(-c2ccc(Cl)cc2)nc1CCOc1cccc(C[C@@H]2C(=O)N(c3ccc(C(C)(C)C)cc3)[C@@H]2C(=O)O)c1`, the IC50 in data set [1] amounted to 2.8 µM; in [2], 0.48 µM; in data set [3] it was 0.67 µM; in data set [10], 4.7 µM; in data set [8], 0.41 µM. The results for the EC50 in data set [4] and in data set [5] were 0.06 µM and 0.005 µM, respectively. In data set [6], this molecule gave an Intrinsic activity greater than 90%.

Source of the values: ChEMBL document CHEMBL1142250, “Discovery of azetidinone acids as conformationally-constrained dual PPARalpha/gamma agonists” (Bioorg Med Chem Lett, 2008).
